Results from ChEMBL document CHEMBL2440076, “New triarylpyrazoles as broad-spectrum anticancer agents: design, synthesis, and biological evaluation” (Eur J Med Chem, 2013).

What was measured:
[1] = test system: DU-145; assay: Growth inhibition of human DU145 cells after 48 hrs by sulforhodamine B assay; assay type: functional; details: DU-145, 48 h
[2] = test system: OVCAR-3; assay: Growth inhibition of human OVCAR3 cells assessed as cell growth at 10 uM after 48 hrs by sulforhodamine B assay; assay type: functional; details: OVCAR-3, 48 h, read-out: Activity
[3] = test system: M14; assay: Growth inhibition of human M14 cells after 48 hrs by sulforhodamine B assay; assay type: functional; details: M14, 48 h
[4] = test system: PC-3; assay: Growth inhibition of human PC3 cells after 48 hrs by sulforhodamine B assay; assay type: functional, cell-based; details: PC-3, 48 h; for CC50: read-out: LC50 (the source's name)
[5] = test system: SNB-75; assay: Growth inhibition of human SNB75 cells after 48 hrs by sulforhodamine B assay; assay type: functional; details: SNB-75, 48 h
[6] = test system: A549; assay: Growth inhibition of human A549/ATCC cells after 48 hrs by sulforhodamine B assay; assay type: functional; details: A549, 48 h
[7] = test system: HT-29; assay: Growth inhibition of human HT-29 cells assessed as cell growth at 10 uM after 48 hrs by sulforhodamine B assay; assay type: functional; details: HT-29, 48 h, read-out: Activity
[8] = test system: SNB-19; assay: Growth inhibition of human SNB19 cells after 48 hrs by sulforhodamine B assay; assay type: functional; details: SNB-19, 48 h
[9] = Growth inhibition of human Hs 578T cells assessed as cell growth at 10 uM after 48 hrs by sulforhodamine B assay; assay type: functional; details: read-out: Activity
[10] = test system: HCT-116; assay: Growth inhibition of human HCT116 cells after 48 hrs by sulforhodamine B assay; assay type: functional; details: HCT-116, 48 h; for CC50: read-out: LC50 (the source's name)
[11] = test system: HCT-15; assay: Growth inhibition of human HCT15 cells after 48 hrs by sulforhodamine B assay; assay type: functional; details: HCT-15, 48 h
[12] = Growth inhibition of human NCI-ADR-RES cells after 48 hrs by sulforhodamine B assay; assay type: functional; details: for CC50: read-out: LC50 (the source's name)
[13] = test system: UACC-257; assay: Growth inhibition of human UACC257 cells after 48 hrs by sulforhodamine B assay; assay type: functional; details: UACC-257, 48 h; for CC50: read-out: LC50 (the source's name)
[14] = Growth inhibition of human HCC2998 cells assessed as cell growth at 10 uM after 48 hrs by sulforhodamine B assay; assay type: functional; details: HCC 2998, 48 h, read-out: Activity
[15] = test system: SW-620; assay: Growth inhibition of human SW620 cells assessed as cell growth at 10 uM after 48 hrs by sulforhodamine B assay; assay type: functional; details: SW-620, 48 h, read-out: Activity
[16] = test system: DU-145; assay: Growth inhibition of human DU145 cells assessed as cell growth at 10 uM after 48 hrs by sulforhodamine B assay; assay type: functional; details: DU-145, 48 h, read-out: Activity
[17] = test system: U-251; assay: Growth inhibition of human U251 cells after 48 hrs by sulforhodamine B assay; assay type: functional; details: U-251, 48 h
[18] = test system: KM12; assay: Growth inhibition of human KM12 cells assessed as cell growth at 10 uM after 48 hrs by sulforhodamine B assay; assay type: functional; details: KM12, 48 h, read-out: Activity
[19] = test system: A498; assay: Growth inhibition of human A498 cells after 48 hrs by sulforhodamine B assay; assay type: functional, cell-based; details: A498, 48 h; for CC50: read-out: LC50 (the source's name)
[20] = test system: NCI-H322M; assay: Growth inhibition of human NCI-H322M cells after 48 hrs by sulforhodamine B assay; assay type: functional; details: for CC50: read-out: LC50 (the source's name)
[21] = test system: MDA-MB-435; assay: Growth inhibition of human MDA-MB-435 cells after 48 hrs by sulforhodamine B assay; assay type: functional, cell-based; details: MDA-MB-435, 48 h; for CC50: read-out: LC50 (the source's name)
[22] = test system: RXF 393; assay: Growth inhibition of human RXF393 cells after 48 hrs by sulforhodamine B assay; assay type: functional; details: RXF 393, 48 h
[23] = test system: HCT-15; assay: Growth inhibition of human HCT15 cells assessed as cell growth at 10 uM after 48 hrs by sulforhodamine B assay; assay type: functional; details: HCT-15, 48 h, read-out: Activity
[24] = test system: ACHN; assay: Growth inhibition of human ACHN cells assessed as cell growth at 10 uM after 48 hrs by sulforhodamine B assay; assay type: functional; details: read-out: Activity
[25] = test system: 786-0; assay: Growth inhibition of human 786-0 cells assessed as cell growth at 10 uM after 48 hrs by sulforhodamine B assay; assay type: functional; details: 786-0, 48 h, read-out: Activity
[26] = test system: SN12C; assay: Growth inhibition of human SN12C cells after 48 hrs by sulforhodamine B assay; assay type: functional; details: for CC50: read-out: LC50 (the source's name)
[27] = test system: HT-29; assay: Growth inhibition of human HT-29 cells after 48 hrs by sulforhodamine B assay; assay type: functional; details: HT-29, 48 h; for CC50: read-out: LC50 (the source's name)
[28] = test system: SNB-19; assay: Growth inhibition of human SNB19 cells assessed as cell growth at 10 uM after 48 hrs by sulforhodamine B assay; assay type: functional; details: SNB-19, 48 h, read-out: Activity
[29] = test system: M14; assay: Growth inhibition of human M14 cells assessed as cell growth at 10 uM after 48 hrs by sulforhodamine B assay; assay type: functional; details: M14, 48 h, read-out: Activity
[30] = test system: SK-MEL-2; assay: Growth inhibition of human SK-MEL-2 cells assessed as cell growth at 10 uM after 48 hrs by sulforhodamine B assay; assay type: functional; details: SK-MEL-2, 48 h, read-out: Activity
[31] = test system: TK-10; assay: Growth inhibition of human TK10 cells assessed as cell growth at 10 uM after 48 hrs by sulforhodamine B assay; assay type: functional; details: TK-10, 48 h, read-out: Activity
[32] = Growth inhibition of human Hs 578T cells after 48 hrs by sulforhodamine B assay; assay type: functional; details: for CC50: read-out: LC50 (the source's name)
[33] = test system: SK-MEL-28; assay: Growth inhibition of human SK-MEL-28 cells assessed as cell growth at 10 uM after 48 hrs by sulforhodamine B assay; assay type: functional; details: SK-MEL-28, 48 h, read-out: Activity
[34] = test system: A549; assay: Growth inhibition of human A549/ATCC cells assessed as cell growth at 10 uM after 48 hrs by sulforhodamine B assay; assay type: functional; details: A549, 48 h, read-out: Activity
[35] = test system: OVCAR-4; assay: Growth inhibition of human OVCAR4 cells assessed as cell growth at 10 uM after 48 hrs by sulforhodamine B assay; assay type: functional; details: OVCAR-4, 48 h, read-out: Activity

COc1cc(-c2nn(-c3cccc(NC(=O)Nc4cccc(C(F)(F)F)c4)c3)cc2-c2ccncc2)ccc1Cl
GI50 [1]: 1670 nM | LC50 [1]: > 50000 nM | TGI [1]: > 50000 nM | growth at 10 µM [2]: -42% | GI50 [3]: 754 nM | LC50 (concentration killing 50% of cells) [3]: 4650 nM | TGI [3]: 1870 nM | GI50 [4]: 372 nM | IC50 [4]: 370 nM | TGI [4]: 2510 nM | CC50 [4]: > 50000 nM | GI50 [5]: 1160 nM | LC50 (lethal concentration, 50% net cell kill) [5]: 50000 nM | TGI [5]: 4500 nM | GI50 [6]: 794 nM | LC50 (concentration killing 50% of starting cells) [6]: > 50000 nM | TGI [6]: > 50000 nM | growth at 10 µM [7]: -64% | GI50 [8]: 981 nM | LC50 (concentration killing 50% of cells) [8]: > 50000 nM | TGI [8]: 4000 nM | growth at 10 µM [9]: -13.7% | GI50 [10]: 900 nM | TGI [10]: 7170 nM | CC50 [10]: > 50000 nM | GI50 [11]: 870 nM | LC50 [11]: 50000 nM | TGI [11]: 5420 nM | GI50 [12]: 783 nM | TGI [12]: 3640 nM | CC50 [12]: > 50000 nM | GI50 [13]: 923 nM | TGI [13]: 2310 nM | CC50 [13]: 7580 nM | growth at 10 µM [14]: -18.4% | growth at 10 µM [15]: 8.92% | growth at 10 µM [16]: 9.75% | GI50 [17]: 645 nM | LC50 (concentration killing 50% of cells) [17]: 2920 nM | TGI [17]: 1370 nM | growth at 10 µM [18]: -27.8% | GI50 [19]: 958 nM | IC50 [19]: 960 nM | TGI [19]: 4040 nM | CC50 [19]: > 50000 nM | GI50 [20]: 1210 nM | TGI [20]: 4730 nM | CC50 [20]: > 50000 nM | GI50 [21]: 866 nM | IC50 [21]: 870 nM | TGI [21]: 2140 nM | CC50 [21]: 8070 nM | GI50 [22]: 777 nM | LC50 (concentration killing 50% of cells) [22]: 4830 nM | TGI [22]: 1940 nM | growth at 10 µM [23]: 5.28% | growth at 10 µM [24]: 6.54% | growth at 10 µM [25]: -15% | GI50 [26]: 1400 nM | TGI [26]: 21900 nM | CC50 [26]: > 50000 nM | GI50 [27]: 748 nM | TGI [27]: 1870 nM | CC50 [27]: 4670 nM | growth at 10 µM [28]: 23.5% | growth at 10 µM [29]: -61.5% | growth at 10 µM [30]: -71.2% | growth at 10 µM [31]: 2.65% | GI50 [32]: 1230 nM | TGI [32]: 12500 nM | CC50 [32]: > 50000 nM | growth at 10 µM [33]: -18.6% | growth at 10 µM [34]: -14% | growth at 10 µM [35]: 11.1%

COc1cc(-c2nn(-c3cccc(NC(=O)c4ccc(N5CCOCC5)c(C(F)(F)F)c4)c3)cc2-c2ccncc2)ccc1Cl
GI50 [1]: 388 nM | LC50 [1]: > 100000 nM | TGI [1]: > 100000 nM | growth at 10 µM [2]: -29.9% | GI50 [3]: 430 nM | LC50 (concentration killing 50% of cells) [3]: > 100000 nM | TGI [3]: 16000 nM | GI50 [4]: 251 nM | IC50 [4]: 250 nM | TGI [4]: 14700 nM | CC50 [4]: > 100000 nM | GI50 [5]: 212 nM | LC50 (lethal concentration, 50% net cell kill) [5]: > 100000 nM | GI50 [6]: 315 nM | LC50 (concentration killing 50% of starting cells) [6]: > 100000 nM | TGI [6]: > 100000 nM | growth at 10 µM [7]: -13.3% | GI50 [8]: 520 nM | LC50 (concentration killing 50% of cells) [8]: > 100000 nM | TGI [8]: > 100000 nM | growth at 10 µM [9]: -13.6% | GI50 [10]: 400 nM | TGI [10]: > 100000 nM | CC50 [10]: > 100000 nM | GI50 [11]: 247 nM | LC50 [11]: > 100000 nM | TGI [11]: > 100000 nM | GI50 [12]: 228 nM | TGI [12]: > 100000 nM | CC50 [12]: > 100000 nM | GI50 [13]: 935 nM | TGI [13]: 8140 nM | CC50 [13]: > 100000 nM | growth at 10 µM [14]: 8.82% | growth at 10 µM [15]: 25.2% | growth at 10 µM [16]: 10.9% | GI50 [17]: 399 nM | LC50 (concentration killing 50% of cells) [17]: 60700 nM | TGI [17]: 3950 nM | growth at 10 µM [18]: 5.64% | GI50 [19]: 227 nM | IC50 [19]: 230 nM | TGI [19]: 1080 nM | CC50 [19]: > 100000 nM | GI50 [20]: 603 nM | TGI [20]: 94400 nM | CC50 [20]: > 100000 nM | GI50 [21]: 26.6 nM | IC50 [21]: 27 nM | TGI [21]: 91.4 nM | CC50 [21]: > 100000 nM | GI50 [22]: 199 nM | LC50 (concentration killing 50% of cells) [22]: > 100000 nM | TGI [22]: 674 nM | growth at 10 µM [23]: 16.7% | growth at 10 µM [24]: 21.3% | growth at 10 µM [25]: -3.26% | GI50 [26]: 1090 nM | TGI [26]: > 100000 nM | CC50 [26]: > 100000 nM | GI50 [27]: 380 nM | TGI [27]: 1520 nM | CC50 [27]: > 100000 nM | growth at 10 µM [28]: 45.1% | growth at 10 µM [29]: 1.42% | growth at 10 µM [30]: -8.84% | growth at 10 µM [31]: 17.8% | GI50 [32]: 262 nM | TGI [32]: > 100000 nM | CC50 [32]: > 100000 nM | growth at 10 µM [33]: 28.4% | growth at 10 µM [34]: 3.58% | growth at 10 µM [35]: 52.6%
